PMC12136037, “Type II kinase inhibitors that target Parkinson’s disease–associated LRRK2” (Science Advances, 2025)

Experiments:
Experiment in all cases: DSF 100 kinase selectivity screen;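 also: compound tested at 20 µM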
Assay type in all cases: binding
[1] = target: T1, ~100 representative kinases (Homo sapiens, UniProt O94804); conditions: Protein STK10; DSF; average of three replicates
T1 construct: Recombinant protein kinase domains with a concentration of 2 μM
Procedure, shortened: (§1)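 Each kinase domain, at 2 μM, is mixed with 20 μM test compound and SYPRO Orange in Hepes (20 mM, pH 7.5) with 500 mM NaCl. Temperature is then raised at 3°C/min and fluorescence-monitored unfolding yields the melting temperature change, ΔTm in degrees Celsius.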

[2] = target: T2, ~100 representative kinases (Homo sapiens, UniProt P45985); conditions: protein MAP2K4; average of three replicates
T2 construct: Recombinant protein kinase domains with a concentration of 2 μM
T2 sequence (P45985 1-399): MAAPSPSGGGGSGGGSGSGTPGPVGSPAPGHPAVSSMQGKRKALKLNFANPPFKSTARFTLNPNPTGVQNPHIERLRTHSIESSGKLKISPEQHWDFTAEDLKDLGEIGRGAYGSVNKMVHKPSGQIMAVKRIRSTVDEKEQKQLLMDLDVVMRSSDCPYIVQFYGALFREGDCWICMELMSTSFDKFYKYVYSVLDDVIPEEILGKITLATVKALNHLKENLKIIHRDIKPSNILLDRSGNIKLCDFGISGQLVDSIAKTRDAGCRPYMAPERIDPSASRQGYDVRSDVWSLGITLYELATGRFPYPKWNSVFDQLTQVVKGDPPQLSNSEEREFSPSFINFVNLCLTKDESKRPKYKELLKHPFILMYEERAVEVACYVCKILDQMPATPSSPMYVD
Procedure, shortened: as §1

[3] = target: T3, ~100 representative kinases (Homo sapiens, UniProt P53355); conditions: Protein DAPK1; average of three replicates
T3 construct: Recombinant protein kinase domains with a concentration of 2 μM
T3 sequence (P53355 whole entry, the tested form may be a part): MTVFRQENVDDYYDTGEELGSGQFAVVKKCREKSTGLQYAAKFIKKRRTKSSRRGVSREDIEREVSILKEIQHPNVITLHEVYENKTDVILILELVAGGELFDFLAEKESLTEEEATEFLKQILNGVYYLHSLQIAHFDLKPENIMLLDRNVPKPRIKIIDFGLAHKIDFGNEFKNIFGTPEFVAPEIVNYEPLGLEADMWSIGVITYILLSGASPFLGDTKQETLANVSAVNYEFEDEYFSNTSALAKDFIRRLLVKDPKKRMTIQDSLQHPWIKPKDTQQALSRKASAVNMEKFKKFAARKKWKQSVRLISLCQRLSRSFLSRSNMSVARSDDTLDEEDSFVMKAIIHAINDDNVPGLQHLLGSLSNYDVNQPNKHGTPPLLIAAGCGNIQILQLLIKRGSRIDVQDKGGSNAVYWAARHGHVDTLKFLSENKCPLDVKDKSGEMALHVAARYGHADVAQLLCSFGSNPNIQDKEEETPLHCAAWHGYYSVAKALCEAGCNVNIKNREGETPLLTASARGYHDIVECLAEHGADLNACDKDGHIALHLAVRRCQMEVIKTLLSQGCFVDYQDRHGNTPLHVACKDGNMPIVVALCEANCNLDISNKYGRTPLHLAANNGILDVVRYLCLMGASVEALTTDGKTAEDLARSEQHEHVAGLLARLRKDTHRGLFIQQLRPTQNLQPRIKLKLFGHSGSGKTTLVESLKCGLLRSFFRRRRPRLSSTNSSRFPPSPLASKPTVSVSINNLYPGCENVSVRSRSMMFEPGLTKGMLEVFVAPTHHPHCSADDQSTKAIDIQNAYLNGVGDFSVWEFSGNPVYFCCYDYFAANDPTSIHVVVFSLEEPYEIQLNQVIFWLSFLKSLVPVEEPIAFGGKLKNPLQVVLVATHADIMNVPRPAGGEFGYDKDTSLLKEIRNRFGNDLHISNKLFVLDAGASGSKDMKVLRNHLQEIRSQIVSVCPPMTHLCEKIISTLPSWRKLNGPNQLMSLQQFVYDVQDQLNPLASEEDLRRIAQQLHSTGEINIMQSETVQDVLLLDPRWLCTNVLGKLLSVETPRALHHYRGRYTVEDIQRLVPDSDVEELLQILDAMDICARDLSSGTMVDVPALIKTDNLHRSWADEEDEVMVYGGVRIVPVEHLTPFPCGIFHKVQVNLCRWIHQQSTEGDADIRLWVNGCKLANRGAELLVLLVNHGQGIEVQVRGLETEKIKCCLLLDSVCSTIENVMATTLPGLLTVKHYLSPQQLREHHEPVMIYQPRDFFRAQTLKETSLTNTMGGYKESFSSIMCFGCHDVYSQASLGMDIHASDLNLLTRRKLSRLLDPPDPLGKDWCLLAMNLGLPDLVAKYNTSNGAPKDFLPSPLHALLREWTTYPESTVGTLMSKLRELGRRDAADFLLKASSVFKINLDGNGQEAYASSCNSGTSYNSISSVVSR
Procedure, shortened: as §1

[4] = target: T4, ~100 representative kinases (Homo sapiens, UniProt Q13557); conditions: Protein CAMK2D; average of three replicates
T4 construct: Recombinant protein kinase domains with a concentration of 2 μM
T4 sequence (Q13557 whole entry, the tested form may be a part): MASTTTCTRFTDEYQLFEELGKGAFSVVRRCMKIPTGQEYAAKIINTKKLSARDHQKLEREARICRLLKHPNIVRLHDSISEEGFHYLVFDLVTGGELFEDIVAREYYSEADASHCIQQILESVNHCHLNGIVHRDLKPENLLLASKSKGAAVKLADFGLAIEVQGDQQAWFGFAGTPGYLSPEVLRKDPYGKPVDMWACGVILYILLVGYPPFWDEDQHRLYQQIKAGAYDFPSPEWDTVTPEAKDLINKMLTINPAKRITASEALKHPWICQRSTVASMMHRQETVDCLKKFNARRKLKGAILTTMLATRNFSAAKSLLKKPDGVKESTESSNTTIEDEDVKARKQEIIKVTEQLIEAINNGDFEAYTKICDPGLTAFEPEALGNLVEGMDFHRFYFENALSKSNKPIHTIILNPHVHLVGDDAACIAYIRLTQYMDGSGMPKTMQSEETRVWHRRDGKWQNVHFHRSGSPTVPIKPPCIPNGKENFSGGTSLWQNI
Procedure, shortened: as §1

[5] = target: T5, ~100 representative kinases (Homo sapiens, UniProt Q15375); conditions: Protein EPHA7; average of three replicates
T5 construct: Recombinant protein kinase domains with a concentration of 2 μM
T5 sequence (Q15375 28-998): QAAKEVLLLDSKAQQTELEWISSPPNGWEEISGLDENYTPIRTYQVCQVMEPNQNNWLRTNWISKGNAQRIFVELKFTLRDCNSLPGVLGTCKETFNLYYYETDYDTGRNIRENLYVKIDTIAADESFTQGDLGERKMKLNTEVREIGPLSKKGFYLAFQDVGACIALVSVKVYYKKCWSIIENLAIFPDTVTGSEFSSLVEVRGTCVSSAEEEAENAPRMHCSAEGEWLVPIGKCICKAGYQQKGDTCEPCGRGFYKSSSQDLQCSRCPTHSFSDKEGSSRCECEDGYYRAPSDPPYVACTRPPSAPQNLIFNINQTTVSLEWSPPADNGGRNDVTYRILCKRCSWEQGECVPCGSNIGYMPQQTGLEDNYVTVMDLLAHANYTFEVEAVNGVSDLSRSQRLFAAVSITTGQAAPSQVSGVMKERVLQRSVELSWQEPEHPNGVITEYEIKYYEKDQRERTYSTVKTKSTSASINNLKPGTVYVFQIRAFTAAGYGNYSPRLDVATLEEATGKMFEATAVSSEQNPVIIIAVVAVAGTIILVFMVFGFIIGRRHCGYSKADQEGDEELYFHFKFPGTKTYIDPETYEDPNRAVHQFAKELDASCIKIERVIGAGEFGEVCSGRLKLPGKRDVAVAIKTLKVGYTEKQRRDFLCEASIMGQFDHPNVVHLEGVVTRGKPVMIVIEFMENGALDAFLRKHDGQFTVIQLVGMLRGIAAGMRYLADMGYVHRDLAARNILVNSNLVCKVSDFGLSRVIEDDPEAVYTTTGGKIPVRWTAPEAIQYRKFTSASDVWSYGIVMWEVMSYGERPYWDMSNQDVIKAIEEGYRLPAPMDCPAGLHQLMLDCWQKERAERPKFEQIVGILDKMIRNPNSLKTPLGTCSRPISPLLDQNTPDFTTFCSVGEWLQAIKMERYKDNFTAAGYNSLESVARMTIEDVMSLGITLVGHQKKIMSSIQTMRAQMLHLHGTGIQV
Procedure, shortened: as §1

[6] = target: T6, ~100 representative kinases (Homo sapiens, UniProt Q8TD08); conditions: protein MAPK15; average of three replicates
T6 construct: Recombinant protein kinase domains with a concentration of 2 μM
T6 sequence (Q8TD08 1-544): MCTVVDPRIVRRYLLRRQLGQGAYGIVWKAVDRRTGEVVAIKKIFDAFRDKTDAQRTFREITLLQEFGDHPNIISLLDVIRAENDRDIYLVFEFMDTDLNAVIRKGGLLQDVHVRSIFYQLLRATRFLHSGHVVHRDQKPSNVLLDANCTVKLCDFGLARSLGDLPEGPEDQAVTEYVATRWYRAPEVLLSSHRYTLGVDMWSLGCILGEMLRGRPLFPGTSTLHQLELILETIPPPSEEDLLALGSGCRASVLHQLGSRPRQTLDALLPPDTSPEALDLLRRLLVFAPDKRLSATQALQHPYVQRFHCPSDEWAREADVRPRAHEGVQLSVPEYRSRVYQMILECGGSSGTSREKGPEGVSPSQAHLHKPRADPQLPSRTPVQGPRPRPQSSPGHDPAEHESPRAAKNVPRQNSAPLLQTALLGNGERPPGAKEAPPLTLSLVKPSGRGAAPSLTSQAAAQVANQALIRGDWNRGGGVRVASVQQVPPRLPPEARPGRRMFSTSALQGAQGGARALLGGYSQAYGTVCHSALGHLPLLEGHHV
Procedure, shortened: as §1

[7] = target: T7, ~100 representative kinases (Homo sapiens, UniProt Q92630); conditions: Protein DYRK2; average of three replicates
T7 construct: Recombinant protein kinase domains with a concentration of 2 μM
T7 sequence (Q92630 1-601): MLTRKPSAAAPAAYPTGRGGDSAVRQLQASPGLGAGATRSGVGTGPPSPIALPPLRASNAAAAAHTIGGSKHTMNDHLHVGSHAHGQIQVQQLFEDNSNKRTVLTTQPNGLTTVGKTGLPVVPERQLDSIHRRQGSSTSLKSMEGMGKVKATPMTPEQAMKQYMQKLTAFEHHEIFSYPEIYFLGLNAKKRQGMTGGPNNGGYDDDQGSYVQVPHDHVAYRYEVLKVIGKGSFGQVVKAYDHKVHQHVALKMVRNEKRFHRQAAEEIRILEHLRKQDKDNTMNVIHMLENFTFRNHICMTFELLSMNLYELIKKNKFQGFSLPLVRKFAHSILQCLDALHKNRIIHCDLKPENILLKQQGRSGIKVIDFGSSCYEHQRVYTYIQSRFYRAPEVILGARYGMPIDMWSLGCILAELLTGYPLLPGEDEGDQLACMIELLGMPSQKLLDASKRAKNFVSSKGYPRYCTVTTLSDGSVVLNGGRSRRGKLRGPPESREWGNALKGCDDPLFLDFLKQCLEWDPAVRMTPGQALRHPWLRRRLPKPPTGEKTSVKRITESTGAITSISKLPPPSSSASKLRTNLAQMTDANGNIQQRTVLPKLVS
Procedure, shortened: as §1

[8] = target: T8, ~100 representative kinases (Homo sapiens, UniProt Q96L34); conditions: protein MARK4; average of three replicates
T8 construct: Recombinant protein kinase domains with a concentration of 2 μM
T8 sequence (Q96L34 1-752): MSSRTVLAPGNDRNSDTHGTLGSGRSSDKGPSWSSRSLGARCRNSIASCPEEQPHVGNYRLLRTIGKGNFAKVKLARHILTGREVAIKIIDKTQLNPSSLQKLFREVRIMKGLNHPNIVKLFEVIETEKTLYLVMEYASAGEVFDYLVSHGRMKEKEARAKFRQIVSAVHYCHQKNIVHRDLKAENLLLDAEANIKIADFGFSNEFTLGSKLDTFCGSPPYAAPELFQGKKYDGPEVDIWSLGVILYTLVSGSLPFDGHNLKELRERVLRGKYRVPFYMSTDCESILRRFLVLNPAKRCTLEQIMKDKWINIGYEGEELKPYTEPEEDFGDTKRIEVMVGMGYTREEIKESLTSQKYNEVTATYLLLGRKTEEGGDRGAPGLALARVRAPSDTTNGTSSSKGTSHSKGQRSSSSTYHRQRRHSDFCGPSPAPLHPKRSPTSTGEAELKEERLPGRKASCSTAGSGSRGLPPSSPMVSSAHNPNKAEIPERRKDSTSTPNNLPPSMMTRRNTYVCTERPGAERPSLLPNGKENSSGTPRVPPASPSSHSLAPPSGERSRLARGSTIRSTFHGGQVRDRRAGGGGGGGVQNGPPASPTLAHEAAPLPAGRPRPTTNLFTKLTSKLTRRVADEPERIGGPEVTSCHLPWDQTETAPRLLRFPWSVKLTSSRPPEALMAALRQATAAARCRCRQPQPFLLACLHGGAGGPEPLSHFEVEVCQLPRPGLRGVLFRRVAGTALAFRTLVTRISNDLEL
Procedure, shortened: as §1

T1 sequence (O94804 whole entry, the tested form may be a part): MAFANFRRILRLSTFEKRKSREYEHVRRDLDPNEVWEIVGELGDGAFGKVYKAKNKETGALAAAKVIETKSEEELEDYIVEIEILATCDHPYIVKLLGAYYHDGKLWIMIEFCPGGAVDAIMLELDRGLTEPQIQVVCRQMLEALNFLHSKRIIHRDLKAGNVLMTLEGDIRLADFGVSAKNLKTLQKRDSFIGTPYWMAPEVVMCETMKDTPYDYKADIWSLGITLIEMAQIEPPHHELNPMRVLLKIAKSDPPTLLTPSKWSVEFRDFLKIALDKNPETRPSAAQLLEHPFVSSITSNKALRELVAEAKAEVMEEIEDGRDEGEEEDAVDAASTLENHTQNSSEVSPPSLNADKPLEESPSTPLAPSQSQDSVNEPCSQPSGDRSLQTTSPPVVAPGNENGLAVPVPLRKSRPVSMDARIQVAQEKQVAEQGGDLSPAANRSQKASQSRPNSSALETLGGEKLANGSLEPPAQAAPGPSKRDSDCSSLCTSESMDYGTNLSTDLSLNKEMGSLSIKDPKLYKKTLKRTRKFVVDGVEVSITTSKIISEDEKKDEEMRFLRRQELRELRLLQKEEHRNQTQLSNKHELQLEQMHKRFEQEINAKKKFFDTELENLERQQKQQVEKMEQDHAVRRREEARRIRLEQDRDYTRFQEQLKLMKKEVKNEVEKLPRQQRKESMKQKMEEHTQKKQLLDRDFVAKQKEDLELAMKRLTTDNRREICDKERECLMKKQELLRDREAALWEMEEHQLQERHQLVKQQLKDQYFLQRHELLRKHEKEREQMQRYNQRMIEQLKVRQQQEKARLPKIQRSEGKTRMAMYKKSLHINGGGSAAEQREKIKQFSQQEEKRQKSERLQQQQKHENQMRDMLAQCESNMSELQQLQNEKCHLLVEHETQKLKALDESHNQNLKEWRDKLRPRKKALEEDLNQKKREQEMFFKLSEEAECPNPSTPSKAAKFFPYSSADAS

| Structure (SMILES) | dTm [1] [K] | dTm [2] [K] | dTm [3] [K] | dTm [4] [K] | dTm [5] [K] | dTm [7] [K] | dTm [8] [K] | dTm [6] [K] |
| --- | --- | --- | --- | --- | --- | --- | --- | --- |
| CC(C)(C)c1cc(NC(=O)Nc2cccc(-c3c[nH]c4ncnc(N5CCOCC5)c34)c2)n(-c2ccc3ncccc3c2)n1 [Compound 28] | 20.14 | 6.08 | 2.32 | 0.51 | 1.92 | 10.25 | 4.38 | 14.38 |
| Cc1ccc(-n2nc(C(C)(C)C)cc2NC(=O)Nc2cccc(-c3c[nH]c4ncnc(N5CCOCC5)c34)c2)cc1 [Compound 29] | 20.37 | 5.30 | 2.62 | -0.40 | 2.68 | 9.71 | 3.91 | 16.65 |
| Cc1ccc(-n2nc(C(C)(C)C)cc2NC(=O)Nc2cccc(-c3c[nH]c4nc(Cl)nc(N5CCOCC5)c34)c2)cc1 [Compound 30] | 13.38 | 1.92 | -3.64 | -0.81 | 0.22 | 3.48 | -1.19 | 6.72 |
| CC(=O)N1CCN(c2nc(Cl)nc3[nH]cc(-c4cccc(NC(=O)Nc5cc(C(C)(C)C)nn5-c5ccc(C)cc5)c4)c23)CC1 [Compound 31] | 13.28 | 1.72 | -1.54 | -0.29 | 0.34 | 6.61 | -0.53 | 8.84 |
| CCSc1nc(NC)c2c(-c3cccc(NC(=O)Nc4cc(C(C)(C)C)nn4-c4ccc(C)cc4)c3)c[nH]c2n1 [Compound 32] | 8.61 | 0.66 | -0.22 | 0.32 | 0.38 | 6.49 | 0.25 | 3.18 |
| COc1cc(C(=O)N2CCOCC2)c(F)cc1Nc1nc(N(C)C)c2c(Cl)c[nH]c2n1 [Compound 36] | -1.96 | 10.31 | 3.45 | 3.01 | 2.27 | 5.31 | -0.63 | 0.97 |
| COc1cc(S(C)(=O)=O)ccc1Nc1nc(N(C)C)c2c(Cl)c[nH]c2n1 [Compound 37] | -1.61 | 4.74 | 0.93 | 0.41 | 0.12 | 1.57 | 0.42 | -0.10 |

More lines, main results first:

| dTm [1] [K] | dTm [2] [K] | dTm [3] [K] | dTm [4] [K] | dTm [5] [K] | dTm [7] [K] | dTm [8] [K] | Structure (SMILES) | dTm [6] [K] |
| --- | --- | --- | --- | --- | --- | --- | --- | --- |
| 16.12 | 7.49 | 0.0134 | 0.24 | -0.92 | 10.73 | 6.75 | Cc1cc(NC(=O)C2(C(=O)Nc3cccc(-c4c[nH]c5ncnc(N6CCOCC6)c45)c3)CC2)ccc1F [Compound 20] | 12.42 |
| 12.16 | 6.42 | -1.16 | -0.00539 | -1.98 | 8.53 | 4.12 | COc1cc(NC(=O)C2(C(=O)Nc3cccc(-c4c[nH]c5ncnc(N6CCOCC6)c45)c3)CC2)ccc1F [Compound 21] | 10.35 |
| 15.18 | 5.69 | -2.58 | 0.84 | 2.40 | 5.80 | 4.58 | CC(C)(C)c1cccc(NC(=O)C2(C(=O)Nc3cccc(-c4c[nH]c5ncnc(N6CCOCC6)c45)c3)CC2)c1 [Compound 22] | 6.32 |
| 9.26 | 5.20 | -1.28 | 0.16 | -2.29 | 3.88 | 2.83 | O=C(Nc1cccc(-c2c[nH]c3ncnc(N4CCOCC4)c23)c1)C1(C(=O)Nc2ccc(F)cc2F)CC1 [Compound 23] | 6.01 |
| 8.23 | 5.80 | -1.06 | -0.18 | -2.57 | 1.96 | 2.55 | Cc1cc(F)ccc1NC(=O)C1(C(=O)Nc2cccc(-c3c[nH]c4ncnc(N5CCOCC5)c34)c2)CC1 [Compound 24] | 4.07 |
| 11.10 | 5.47 | -0.48 | 1.32 | 2.86 | 2.68 | -6.37 | O=C(Nc1cccc(-c2c[nH]c3ncnc(N4CCOCC4)c23)c1)C1(C(=O)Nc2cc(Br)c(F)cc2F)CC1 [Compound 25] | 3.06 |
| 12.57 | 5.24 | -0.65 | 1.25 | 1.95 | 4.70 | 1.86 | O=C(Nc1cccc(-c2c[nH]c3ncnc(N4CCOCC4)c23)c1)C1(C(=O)Nc2ccc(F)c(Br)c2F)CC1 [Compound 26] | 5.05 |
| 10.11 | 5.62 | -3.19 | 0.42 | 2.33 | 3.64 | 1.77 | O=C(Nc1cc(F)cc(Br)c1)C1(C(=O)Nc2cccc(-c3c[nH]c4ncnc(N5CCOCC5)c34)c2)CC1 [Compound 27] | 4.52 |
